Laboratory results from EP4631951A1, “SYNTHETIC VACCINES AGAINST POR[…]” (Max-Planck-Gesellschaft zur Förderung der Wissenschaften …, priority 2024, dated 2025).
Entries after “also recorded” stand apart in the source; their conditions may differ.

Columns and labels:
human IgG antibodies = assay: Glycan microarray with human sera and saliva, IgG; assay type: binding; settings: for IgG antibody binding: human saliva and human serum (blood); for IgG binding in CP saliva compared with healthy (and recovered) patients / IgG antibody binding in saliva, compared between glycans: human saliva; for IgG antibody binding in saliva, compared between glycans: MFI, Figures 12 and 13
Excerpt: (§1) Here, human sera and saliva from P. gingivalis infected patients were used to screen antibodies against the synthetic glycan library 1-11 to determine whether LPS fragments are potential leads for vaccine development.
(§2) Samples were taken from a pool of patients at the Charit6 Zahnklinik (provided by Prof. Dr. Henrik Dommisch). The dental status of three groups of patients was defined as: healthy (20 patients, no clinical indications for CP), infected (16 patients, CP stage III or stage IV) and recovered from CP (six patients). Recovered patients were treated from CP stage III or stage IV at the Charit6 Zahnklinik by resective and regenerative surgery and execution of two to four professional dental cleanings per year.
(§3) The synthesized LPS fragments of P. gingivalis were immobilized at NHS-activated carboxyl-functionalized glass slides in triplicates (Figure 10 A, B). Additionally, a positive glycan control containing the α(1→2)-trirhamnose (5.06) was used in the assay, because most humans develop antibodies against this pathogen-associated glycan

human IgA antibodies = assay: Glycan microarray with human sera and saliva, IgA; assay type: binding; settings: human saliva and serum
Excerpt: as §1, §2, §3

C57BL/6NRj mice = assay: Glycan microarray analysis of antibody binding in sera of immunized mice; assay type: in vivo
Excerpt: The immunizations were approved by Landesamt für Gesundheit und Soziales Berlin, Germany (Approval ID: G 0329/18). 8 weeks old C57BL/6NRj mice (Janvier, Le Genest-Saint_Isle, France) were housed at Bundesinstitut für Risikobewertung, Berlin, Germany in groups of five animals in individually ventilated cages (Tecniplast, Hohenpeißenberg, Germany) under specific pathogen-free conditions. Housing and experiments were in accordance with institutional guidelines and with the regulations of the Federation of European Laboratory Animal Science Associations (FELASA). Mice were immunized subcutaneously (s.c.) with 1µg of glycoconjugate per injection. The glycoconjugates, together with Alum adjuvant, were diluted in sterile PBS to a final volume of 100 µL per dose. The animals were immunized on day 0 (primary immunization) and boosted on days 14, 28, and final boosting on day 196. Blood (max. 80µL) and saliva were collected every two weeks. The mice were fixed with on hand and a swap was used to collect the saliva and was afterwards centrifuged at 400 g for 5 min. After coagulation at room temperature, serum was separated by centrifugation at 2,000 g for 10 min. The sera and saliva were frozen at -20°C until further usage. [drawing 126]
Synthetic polysaccharides containing an amine linker as well as protein controls were immobilized on glass microarray slides. The slides were then quenched, blocked with 1% BSA-PBS, and stored at 4°C until use. […]
Slides were incubated for 1 hour at 37 °C in a humidification chamber, washed three times with PBST, rinsed with deionized water, and dried by centrifugation. Fluorescence signals were measured with a Genepix 4300A device (Molecular Devices, Sunnyvale, CA, USA).
The photomultiplier tube (PMT) voltage was adjusted to avoid oversaturation of the signals. Data were analyzed using GenePix Pro 7 software (Molecular Devices, Sunnyvale, CA, USA). […]

| SMILES | IgG antibody binding (human IgG antibodies) | IgG antibody binding in saliva, compared between glycans (human IgG antibodies) | also measured |
| --- | --- | --- | --- |
| C[C@@H]1O[C@@H](O[C@H]2[C@H](O[C@H]3[C@H](OCCCCCN)O[C@@H](C)[C@H](O)[C@H]3O)O[C@@H](C)[C@H](O)[C@H]2O)[C@H](O)[C@H](O)[C@H]1O [5.06, 5-Aminopentyl-a-(1→2)-L-trirhamnopyranoside, reference compound] | showed IgG antibody binding | – | IgG antibodies in saliva (human IgG antibodies; healthy individuals compared with CP and recovered CP patients): also observed in healthy individuals, but significantly less than in chronical periodontitis patients and recovered chronical periodontitis patients; IgA antibody binding (human IgA antibodies): significant binding of IgA |
| CC(=O)N[C@H]1[C@H](OCCCCCN)O[C@H](CO)[C@H](O)[C@@H]1O[C@@H]1O[C@@H](C)[C@H](O[C@H]2O[C@H](CO[C@H]3O[C@H](CO)[C@H](O)[C@H](O)[C@H]3O)[C@@H](O)[C@H](O)[C@H]2O)[C@@H](O)[C@H]1O [compound 1, 5-Aminopentyl-α-D-galactopyranosyl-(1→6)-α-D-glucopyranosyl-(1→4)-α-L-rhamnopyranosyl-(1→3)-2-acetamido-2-deoxy-B-D-galactopyranoside] | – | strongest IgG interaction observed in these studies; also recorded: highest amount of bound IgG antibodies in this study | IgM-responses (C57BL/6NRj mice; course of the experiment, response against the named glycan): remained at low levels; IgG binding in CP saliva compared with healthy (and recovered) patients (human IgG antibodies): significantly higher than in dental healthy patients; IgG in serum of patients infected with P. gingivalis (human IgG antibodies; human serum): binds |
| CC(=O)N[C@H]1[C@H](O[C@H]2[C@@H](O)[C@@H](CO)O[C@H](OCCCCCN)[C@@H]2O)O[C@H](CO)[C@H](O)[C@@H]1O[C@@H]1O[C@@H](C)[C@H](O)[C@@H](O)[C@H]1O [compound 2, 5-Aminopentyl-α-L-rhamnopyranosyl-(1→3)-2-acetamido-2-deoxy-β-D-galactopyranosyl-(1→3)-α-D-galactopyranoside] | show binding to IgG antibodies | higher amount of IgG antibody binding than to rhamnose monomer 9 | IgM levels (C57BL/6NRj mice; day 28, response against the named glycan): relatively high; IgM response peaked (C57BL/6NRj mice; response against the named glycan in mice immunized with its CRM197 conjugate (text names only the glycan)): 14 days; IgG binding in CP saliva compared with healthy (and recovered) patients (human IgG antibodies): stronger IgG binding observed for CP patients |
| CC(=O)N[C@H]1[C@H](O[C@H]2[C@@H](O)[C@@H](CO)O[C@H](OCCCCCN)[C@@H]2O)O[C@H](CO)[C@H](O)[C@@H]1O[C@@H]1O[C@@H](C)[C@H](O[C@H]2O[C@H](CO)[C@@H](O)[C@H](O)[C@H]2O)[C@@H](O)[C@H]1O [compound 3, 5-Amino-pentyl α-D-glucopyranosyl-(1→4)-α-L-rhamnopyranosyl-(1→3)-2-acetamido-2-deoxy-β-D-galactopyranosyl-(1→3)-α-D-galactopyranoside] | showed IgG antibody binding; also recorded: show binding to IgG antibodies | – | – |
| CC(=O)N[C@H]1[C@H](O[C@H]2[C@@H](O)[C@@H](CO)O[C@H](OC[C@H]3O[C@H](O[C@@H]4[C@@H](O)[C@@H](O)[C@H](OCCCCCN)O[C@H]4C)[C@H](O)[C@@H](O)[C@@H]3O)[C@@H]2O)O[C@H](CO)[C@H](O)[C@@H]1O [compound 4, 5-Aminopentyl-2-acetamido-2-deoxy-β-D-galactopyranosyl-(1→3)-α-D-galactopyranosyl-(1→6)-α-D-glucopyranosyl-(1→4)-α-L-rhamnopyranoside] | showed IgG antibody binding | higher IgG antibody binding than 5 tetrasaccharide | – |
| CC(=O)N[C@H]1[C@H](O[C@H]2[C@@H](O)[C@@H](CO)O[C@H](OC[C@H]3O[C@H](OCCCCCN)[C@H](O)[C@@H](O)[C@@H]3O)[C@@H]2O)O[C@H](CO)[C@H](O)[C@@H]1O[C@@H]1O[C@@H](C)[C@H](O)[C@@H](O)[C@H]1O [compound 5, 5-Aminopentyl-α-L-rhamnopyranosyl-(1→3)-2-acetamido-2-deoxy-β-D-galactopyranosyl-(1→3)-α-D-galactopyranosyl-(1→6)-α-D-glucopyranoside] | showed IgG antibody binding; also recorded: show binding to IgG antibodies | – | – |
| NCCCCCO[C@H]1O[C@H](CO[C@H]2O[C@H](CO)[C@H](O)[C@H](O)[C@H]2O)[C@@H](O)[C@H](O)[C@H]1O [compound 7] | showed IgG antibody binding; also recorded: show binding to IgG antibodies | bind significantly less IgG | IgA antibody binding (human IgA antibodies): significant binding of IgA |
| NCCCCCO[C@H]1O[C@H](CO)[C@H](O)[C@H](O)[C@H]1O [compound 11, 5-Aminopentyl α-D-galactopyranoside] | show binding to IgG antibodies | bind significantly less IgG | – |
